This note sets out measurements from patent US9914869B2, “System and method for inhibiting scale formation in oil wells” (GLOBAL GREEN PRODUCTS LLC, priority 2012, dated 2018).

This assay in a line: Scale inhibitor comparison: static bottle test (barium sulfate) and dynamic tube block test (calcium carbonate). As to conditions: barium sulfate / calcium carbonate scale inhibition; table does not say which scale. An excerpt:
These types of chemistries may be used as a comparison when evaluating one or more new scale inhibitors, such as the various aspartic acid based polymers.

For the compound `O=P(O)(O)CN(CCCCCCN(CP(=O)(O)O)CP(=O)(O)O)CCCCCCN(CP(=O)(O)O)CP(=O)(O)O` [BHMT Phosphonate], the “Approximate effective Concentration” value turned out to be 2 ppm. Turning to “diethylenetriamine (DETA) phosphonates [DETA Phosphonate]”, the “Approximate effective Concentration” value is recorded as 2 ppm.
